Results: article PMC10996005, “Identification and Development of Cyclic Peptide Inhibitors of Hypoxia Inducible Factors 1 and 2 That Disrupt Hypoxia-Response Signaling in Cancer Cells” (Journal of the American Chemical Society, 2024)
Like-named read-outs stand apart in the source and are kept apart here. Where a SMILES comes first, the peptide text is derived from it. [ ]: non-standard residue; d: D form. Phe(4-CF3) = N[C@@H](Cc1ccc(C(F)(F)F)cc1)C(=O)O; Phe(4-F) = N[C@@H](Cc1ccc(F)cc1)C(=O)O; 1Nal = N[C@@H](Cc1cccc2ccccc12)C(=O)O; hLeu = CC(C)CC[C@H](N)C(=O)O; hCys = N[C@@H](CCS)C(=O)O; Nle = CCCC[C@H](N)C(=O)O; Abu = CC[C@H](N)C(=O)O; Aib = CC(C)(N)C(=O)O

Tests used:
[1] = target: T1, HIF-1α PAS-B domain (Homo sapiens, UniProt Q16665); assay: MST binding to the PAS-B domain of HIF-1α; conditions: for Hill slope of binding curve to HIF-1α / Kd: MST; for Kd: mean ± SEM, n = 2 (n = 1 for most C1 analogues, n = 3 in Figure S2)
T1 construct: made in house
T1 sequence (Q16665 238-349 limits assumed): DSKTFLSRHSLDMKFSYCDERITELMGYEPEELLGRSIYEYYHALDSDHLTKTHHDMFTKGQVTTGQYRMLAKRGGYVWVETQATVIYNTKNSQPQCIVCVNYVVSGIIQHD
Procedure: (§1) All reagents were purchased from Fisher Scientific or Sigma Aldrich UK unless specified otherwise.
(§2) Restriction enzymes and microbiology reagents were purchased from New England Biolabs Inc., Fisher Scientific (UK) or Promega (UK) and were used as directed by the manufacturer. Primers and oligonucleotides were synthesised by Integrated DNA Technologies (UK). DNA sequencing was carried out by Eurofins MWG Operon (Germany).
(§3) Construction of the RTHS and SICLOPPS library, screening, purification of recombinant HIF proteins, and the PLA was conducted as previously described in Miranda et al., J. Am. Chem. Soc., 2013, 135(28); […]
(§4) Protein labelling with MST dye
(§5) Protein was buffer exchanged from storage buffer into labelling buffer (0.1 M NaHCO3, pH 8.5) using a PD spintrap G-25 column (GE healthcare). The protein concentration was then adjusted to 20 µM.
(§6) The commercially sourced MST dye (NanoTemper) was prepared as a 470 µM solution in DMSO, which was then further diluted to 60 µM using labelling buffer. To the protein solution was added an equal volume of dye solution, and the labelling reaction was left for 1 hour in the dark at room temperature.
(§7) The labelled protein was separated from unreacted dye by elution through a PD minitrap G-25 column (GE healthcare). Labelled protein was then aliquoted and stored at -80 °C. Extent of labelling was measured by the absorbance obtained using the UV-vis mode on a NanoDrop ND-1000 Spectrophotometer (NanoDrop Technologies, USA).
(§8) Labelled protein was thawed on ice and diluted to 50 nM in assay buffer containing 50 mM Tris pH 8.0, 150 mM NaCl, 5% (v/v) glycerol, 1 mM TCEP and 0.05% TWEEN-20. The protein solution was then centrifuged at 12000 rpm for 15 minutes at 4 °C and left on ice. Compounds were prepared and serially diluted in DMSO at 10x assay concentration, before diluting to 2x assay concentration in assay buffer.
(§9) The 2x compound solutions were then mixed 1:1 (v/v) with 50 nM labelled protein solution and left to incubate for 1 hour at room temperature. Solutions were then loaded into Monolith NT.115 Premium Capillaries (NanoTemper) and placed in the sample tray. MST experiments were carried out

[2] = target: T2, HIF-2α PAS-B domain (Homo sapiens, UniProt Q99814); assay: MST binding to the PAS-B domain of HIF-2α; conditions: MST; for Kd: mean (n = 2) ± SEM
T2 construct: made in house
T2 sequence (Q99814 240-350 limits assumed): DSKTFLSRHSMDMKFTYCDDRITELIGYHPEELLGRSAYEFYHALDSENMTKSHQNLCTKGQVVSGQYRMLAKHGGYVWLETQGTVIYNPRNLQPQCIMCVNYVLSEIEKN
Procedure: as §1, §2, §3, §4, §5, §6, §7, §8, §9

Row | Structure (SMILES) | Kd ([1]; read-out: KD for HIF-1α PAS-B) | other results
1 | CC[C@H](C)[C@@H]1NC(=O)[C@H](CC(C)C)NC(=O)[C@H](CC(C)C)NC(=O)[C@H](CCCNC(=N)N)NC(=O)[C@H](CS)NC(=O)[C@H](Cc2ccccc2)NC1=O [cyclo-CRLLIF] (cyclo(CRLLIF); ring closure inferred) |  | Hill slope of binding curve to HIF-1α [1]: 1.22; Hill slope of binding curve to HIF-2α [2]: 1.45
2 | CC[C@H](C)[C@@H]1NC(=O)[C@H](CC(C)C)NC(=O)[C@H](CCCCN)NC(=O)[C@H](CS)NC(=O)[C@H](Cc2ccccc2)NC(=O)[C@H]([C@@H](C)CC)NC1=O [cyclo-CKLIIF] (cyclo(CKLIIF)) |  | Hill slope of binding curve to HIF-1α [1]: 1.33; Hill slope of binding curve to HIF-2α [2]: 1.38
3 | CC[C@H](C)[C@@H]1NC(=O)[C@H](C(C)C)NC(=O)[C@H](CCCNC(=N)N)NC(=O)[C@H](CS)NC(=O)[C@H](Cc2ccccc2)NC(=O)[C@H]([C@@H](C)CC)NC1=O [cyclo-CRVIIF] (cyclo(CRVIIF); ring closure inferred) |  | Kd ([1]; KD for HIF-1α PAS-B): 65.5 ± 11.4 µM; selectivity for HIF-1α over HIF-2α ([1]; ratio of MST KD values): 2 fold
4 | CC[C@H](C)[C@@H]1NC(=O)[C@H](CC(C)C)NC(=O)[C@H](CCCNC(=N)N)NC(=O)[C@H](CCSC)NC(=O)[C@H](Cc2ccccc2)NC(=O)[C@H]([C@@H](C)CC)NC1=O [M, cyclo-MRLIIF] (cyclo(FMRLII)) | > 100 µM | 
5 | CC[C@H](C)[C@@H]1NC(=O)[C@H](C)NC(=O)[C@H](CCCNC(=N)N)NC(=O)[C@H](CS)NC(=O)[C@H](Cc2ccccc2)NC(=O)[C@H]([C@@H](C)CC)NC1=O [cyclo-CRAIIF] (cyclo(CRAIIF)) | 52.7 ± 5.6 µM | Kd [2]: 52.3 ± 6.6 µM
6 | CC[C@H](C)[C@@H]1NC(=O)[C@H](CC(C)C)NC(=O)[C@H](CCCNC(=N)N)NC(=O)[C@H](CSC)NC(=O)[C@H](Cc2ccccc2)NC(=O)[C@H]([C@@H](C)CC)NC1=O [C(Me), cyclo-C(Me)RLIIF] (cyclo(C(Me)RLIIF)) | > 50 µM | 
7 | CC[C@@H]1NC(=O)[C@H]([C@@H](C)CC)NC(=O)[C@H](CC(C)C)NC(=O)[C@H](CCCNC(=N)N)NC(=O)[C@H](CS)NC(=O)[C@H](Cc2ccccc2)NC1=O [Abu, cyclo-CRLIAbuF] (cyclo([Abu]FCRLI)) | 73.4 ± 4.8 µM | 
8 | CC[C@H](C)[C@@H]1NC(=O)[C@H](CC(C)C)NC(=O)[C@H](CCCNC(=N)N)NC(=O)[C@H](CS)NC(=O)[C@H](Cc2ccccc2)NC(=O)[C@H](CCC(C)C)NC1=O [hL, cyclo-CRLIhLF] (cyclo(CRLI[hLeu]F)) | 4.4 ± 1.3 µM | 

The next lines start with results.

Row | Kd ([1]; read-out: KD for HIF-1α PAS-B) | Structure (SMILES) | other results
9 | 1.7 ± 0.5 µM | CC[C@H](C)[C@@H]1NC(=O)[C@H](CC(C)C)NC(=O)[C@H](CCCNC(=N)N)NC(=O)[C@H](CS)NC(=O)[C@H](Cc2cccc3ccccc23)NC(=O)[C@H]([C@@H](C)CC)NC1=O [1-Nal, cyclo-CRLII(1-Nal)] (cyclo([1Nal]CRLII)) | 
10 | > 50 µM | CC[C@H](C)[C@@H]1NC(=O)[C@H](CC(C)C)NC(=O)[C@H](CCCNC(=N)N)NC(=O)[C@H](CCS)NC(=O)[C@H](Cc2ccccc2)NC(=O)[C@H]([C@@H](C)CC)NC1=O [hC, cyclo-hCRLIIF] (cyclo(F[hCys]RLII)) | 
11 | 12.8 ± 3.6 µM | CC[C@H](C)[C@@H]1NC(=O)[C@H](C)NC(=O)[C@H](CC(C)C)NC(=O)[C@H](CCCNC(=N)N)NC(=O)[C@H](CS)NC(=O)[C@H](Cc2ccccc2)NC1=O [cyclo-CRLAIF] (cyclo(CRLAIF)) | Kd [2]: 61 ± 9.1 µM
12 | 1.1 ± 0.5 µM | CC[C@H](C)[C@@H]1NC(=O)[C@H](CC(C)C)NC(=O)[C@H](CCCNC(=N)N)NC(=O)[C@H](CS)NC(=O)[C@H](Cc2ccc(C(F)(F)F)cc2)NC(=O)[C@H]([C@@H](C)CC)NC1=O [CF3, cyclo-CRLII(4-CF3)F] (cyclo(CRLII[Phe(4-CF3)])) | 
13 | 1.7 ± 0.2 µM | CC[C@H](C)[C@@H]1NC(=O)[C@H](CC(C)C)NC(=O)[C@H](CCCNC(=N)N)NC(=O)[C@H](CS)NC(=O)[C@H](Cc2ccc(F)cc2)NC(=O)[C@H]([C@@H](C)CC)NC1=O [F, cyclo-CRLII(4-F)F] (cyclo(CRLII[Phe(4-F)])) | 
14 | 22.4 ± 0.1 µM | CC[C@H](C)[C@@H]1NC(=O)[C@H](CC(C)C)NC(=O)[C@H](CCCNC(=N)N)NC(=O)[C@H](CS)NC(=O)[C@H](Cc2ccccc2)NC(=O)C(C)(C)NC1=O [Aib, cyclo-CRLIAibF] (cyclo([Aib]FCRLI)) | 
15 | 7.5 ± 0.9 µM | CCCC[C@@H]1NC(=O)[C@H]([C@@H](C)CC)NC(=O)[C@H](CC(C)C)NC(=O)[C@H](CCCNC(=N)N)NC(=O)[C@H](CS)NC(=O)[C@H](Cc2ccccc2)NC1=O [Nle, cyclo-CRLINleF] (cyclo(CRLI[Nle]F)) | 
